Non-standard residues stand in square brackets, D forms with d. Residues, ends and D or L forms follow the SMILES beside them. Phe(4-CONH2) = NC(=O)c1ccc(C[C@H](N)C(=O)O)cc1; Pro(cis-4-F) = O=C(O)[C@@H]1C[C@H](F)CN1; hPhe = N[C@@H](CCc1ccccc1)C(=O)O; hSer = N[C@@H](CCO)C(=O)O
Biological target: Kelch-like ECH-associated protein 1 (Homo sapiens, UniProt Q14145)
Test: Binding affinity to human KEAP1 Kelch domain (322 to 609 residues) incubated for 60 mins by TR-FRET assay

Sequence of Kelch-like ECH-associated protein 1 (Q14145 whole entry, the tested form may be a part): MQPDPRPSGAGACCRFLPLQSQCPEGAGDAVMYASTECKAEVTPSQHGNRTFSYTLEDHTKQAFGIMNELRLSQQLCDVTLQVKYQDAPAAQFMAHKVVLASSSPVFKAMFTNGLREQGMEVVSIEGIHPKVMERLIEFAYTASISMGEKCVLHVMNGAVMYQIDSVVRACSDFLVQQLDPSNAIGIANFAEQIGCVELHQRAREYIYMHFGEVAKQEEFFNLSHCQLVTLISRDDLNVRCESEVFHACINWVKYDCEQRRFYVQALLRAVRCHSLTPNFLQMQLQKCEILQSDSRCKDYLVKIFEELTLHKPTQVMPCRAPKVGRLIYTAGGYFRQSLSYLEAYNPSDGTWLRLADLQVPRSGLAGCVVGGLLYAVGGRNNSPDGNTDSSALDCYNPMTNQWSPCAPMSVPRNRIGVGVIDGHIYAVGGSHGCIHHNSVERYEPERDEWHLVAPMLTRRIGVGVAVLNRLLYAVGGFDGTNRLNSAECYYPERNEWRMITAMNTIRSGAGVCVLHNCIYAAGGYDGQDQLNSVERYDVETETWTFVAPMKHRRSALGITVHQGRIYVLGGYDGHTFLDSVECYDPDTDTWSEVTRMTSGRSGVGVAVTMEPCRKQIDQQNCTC

Row | Compound | IC50
1 | Ac-LDEQTGEFL-NH2 | > 64 µM
2 | CC(=O)N[C@@H](CC(C)C)C(=O)N[C@@H](CC(=O)O)C(=O)N[C@@H](CCC(=O)O)C(=O)N[C@@H](CCC(=O)O)C(=O)N[C@H](C(=O)NCC(=O)N[C@@H](Cc1ccc(C(N)=O)cc1)C(=O)N[C@@H](Cc1ccccc1)C(=O)N[C@@H](CC(C)C)C(N)=O)[C@@H](C)O (Ac-LDEETG[Phe(4-CONH2)]FL-NH2) | > 64 µM
3 | CC(=O)N[C@@H](CC(C)C)C(=O)N[C@@H](CC(=O)O)C(=O)N1C[C@@H](F)C[C@H]1C(=O)N[C@@H](CCC(=O)O)C(=O)N[C@@H](Cc1ccccc1)C(=O)NCC(=O)N[C@@H](CCC(=O)O)C(=O)N[C@@H](Cc1ccccc1)C(=O)N[C@@H](CC(C)C)C(N)=O (Ac-LD[Pro(cis-4-F)]EFGEFL-NH2) | > 64 µM

Next, values leading:

Row | IC50 | Compound
4 | > 64 µM | CC(=O)N[C@@H](CC(C)C)C(=O)N[C@@H](CC(=O)O)C(=O)N[C@@H](CCC(=O)O)C(=O)N[C@@H](CCc1ccccc1)C(=O)N[C@H](C(=O)NCC(=O)N[C@@H](CCC(=O)O)C(=O)N[C@@H](Cc1ccccc1)C(=O)N[C@@H](CC(C)C)C(N)=O)[C@@H](C)O (Ac-LDE[hPhe]TGEFL-NH2)
5 | > 50 µM | CC(=O)N[C@@H](CC(C)C)C(=O)N[C@@H](CC(=O)O)C(=O)N[C@@H](CCC(=O)O)C(=O)N[C@@H](CCC(=O)O)C(=O)N[C@H](C(=O)NCC(=O)N[C@@H](CCO)C(=O)N[C@@H](Cc1ccccc1)C(=O)N[C@@H](CC(C)C)C(N)=O)[C@@H](C)O (Ac-LDEETG[hSer]FL-NH2)
